We go through 17 compounds from patent US5756504A, “Tocolytic oxytocin receptor antagonists” (priority 1996, dated 1998).

Like-named read-outs stand apart in the source and are kept apart here.

The term IC50 denotes the concentration needed to halve the response being measured.

For series [1] the following is noted: cited from earlier work.
Series [2] concerns the target T1, oxytocin receptor ([^3 H]OT binding, uterine tissue) (Rattus norvegicus, UniProt P70536).
T1 construct: tissue Taconic Farms, Germantown, N.Y. (animals); host or cells: uterus of nonpregnant adult Sprague-Dawley rats pretreated with diethylstilbestrol propionate, crude membranes
T1 sequence (P70536 1-388): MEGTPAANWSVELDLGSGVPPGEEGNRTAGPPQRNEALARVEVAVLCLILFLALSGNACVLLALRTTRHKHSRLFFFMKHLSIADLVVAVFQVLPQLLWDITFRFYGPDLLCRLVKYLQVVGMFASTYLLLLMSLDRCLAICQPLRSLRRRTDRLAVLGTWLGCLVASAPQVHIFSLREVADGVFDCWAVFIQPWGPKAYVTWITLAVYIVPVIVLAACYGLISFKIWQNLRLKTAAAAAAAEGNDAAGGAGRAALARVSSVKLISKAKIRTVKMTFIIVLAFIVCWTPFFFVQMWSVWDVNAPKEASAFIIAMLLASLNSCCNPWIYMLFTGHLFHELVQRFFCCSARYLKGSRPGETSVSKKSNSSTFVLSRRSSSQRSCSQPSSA
Put plainly: [3H]oxytocin radioligand binding competition assay, rat uterus. Also noted: species or system rat (Sprague-Dawley). As for the experimental part:
RADIOLIGAND BINDING ASSAYS
Ther., 256(1): 304-308 (1991)]. Uterine tissue was taken from nonpregnant adult Sprague-Dawley rats (Taconic Farms, Germantown, N.Y.) pretreated (18-24 h) with diethylstilbestrol propionate (DES; 300 μg/kg, i.p.). Uterine tissue (full thickness) was also taken with informed consent from nonlabor pregnant women undergoing cesarean section at 38 to 39 weeks gestation (Oregon Health Sciences Center, Portland, Oreg.). Liver and kidney medulla samples were taken from male rats and from human surgical and early postmortem donors (National Disease Research Interchange, Philadelphia Pa.; Analytical Biological Services, Wilmington, Del.).
Nonspecific binding was determined using 1 μM unlabeled OT or AVP in their respective assays. The binding reactions were initiated by the addition of tissue preparation and terminated by filtration using a Skatron cell harvester (model 7019, Skatron, Inc., Sterling, Va.). […] The final protein concentration for the various tissues in each assay ranged from 150 to 300 μg/ml [Lowry, P. H.; Rosebrough, N. J.; Farr, A. L.; Randall, R. J.; J. Biol. Chem., 193:265-275 (1951)].
Data is either reported as a given percentage of inhibition at a specified concentration,or if an IC50 was calculated, as a nanomolar concentration.

For series [3] the following is noted: compared with ritodrine; cited from earlier work.
The next series relates to uterus. Put plainly: uterine contraction in situ in nonpregnant rat. The note with it: i.v., DES-pretreated anesthetized rats. It counts as in vivo, rat (Sprague-Dawley). As for the experimental part: 2. OT antagonist activity in the nonpregnant rat
The procedure for measuring isometric contraction of the uterus in situ was adapted from that of Chan et al. [1974] as previously described [Pettibone et al., 1989]. Sprague-Dawley rats (200-300 g, Taconic Farms, Germantown, N.Y.) pretreated with DES (0.25 mg/kg, i.p.; 18 h) were anesthetized with urethane (1.75 g/kg, i.p.), a tracheal cannula was inserted, and a femoral vein was cannulated. The left uterine horn was exposed, and the anterior part of the horn was secured with surgical silk to an anchor post. A second ligature about 3 cm posterior to the first tie was connected to a force transducer and maintained at a tension of 1 g. Signals from the transducer were amplified and recorded. The contractile response of the uterus to OT was quantified by computerized measurement of the area under the contraction-time curve for a 10-min period immediately after the injection of OT. The following protocol was adopted for most experiments. […] The contractile response obtained from the third injection was set as 100%. Areas determined after each injection was expressed as a percentage of the area obtained for the third injection. […] The dose of test compound required to reduce the response to OT by 50% (AD50) was calculated from the contractile areas obtained after the fourth injection of OT (i.e., 5 min postinfusion of test compound). […]

On to `CC(NCCc1ccc(O)cc1)C(O)c1ccc(O)cc1` (stereo not drawn) [Ritodrine], for which the side effects entry in series [1] (tocolytic use, in the mother) is “causes a number of cardiovascular and metabolic side effects in the mother, including tachycardia, increased renin secretion, hyperglycemia (and reactive hypoglycemia in the infant)”.
Consider `COc1ccc(CC(=O)N2CCN(c3ccccc3C)CC2)c(OC)c1` [Example 6, 1-(2,4-Dimethoxyphenylacetyl)-4-(2-methylphenyl)piperazine], for which the IC50 in series [2] turned out to be 540 nM.
Take `COc1cc(OC2CCN(Cc3cccnc3)CC2)ccc1CC(=O)N1CCN(c2ccccc2C)CC1C(N)=O` (stereo not drawn) [Example 15, 1-(2-Methoxy-4-(-1-((pyrid-3-yl)methyl)-4-piperidyloxy)phenylacetyl)-4-(2-methylphenyl) piperazine-2-carboxamide]: the IC50 in series [2] is 28 nM.
Still for that read-out and setting: as for `O=C(Nc1ccc(CC(=O)N2CCC3(C=Cc4ccccc43)CC2)cc1)c1ccc2cc[nH]c2c1` [Example 4, 1'-(4-(Indole-6-carboxylamino)phenylacetyl)spiro[1H]indene-1,4'-piperidine], the figure is 1600 nM; as for `Cc1ccccc1N1CCN(C(=O)Cc2ccc(NC(=O)c3ccc4[nH]cnc4c3)cc2)C(C(N)=O)C1` (stereo not drawn) [Example 8, 1-(4-(Benzimidazol-5-carboxylamino)phenylacetyl)-4-(2-methylphenyl)piperazine-2-carboxamide], 30 nM.
Regarding `O=S(=O)([O-])[O-].[Mg+2]` [Magnesium sulfate], the “toxicity above therapeutic plasma range” value in series [1] (plasma concentrations above 4 to 8 mg/dL) is “can cause inhibition of cardiac conduction and neuromuscular transmission, respiratory depression and cardiac arrest”.
On to `CC(C)(C)NCC(O)c1ccc(O)c(CO)c1` (stereo not drawn) [albuterol], for which, in series [1] (in vivo), the side effects entry is “side effects similar to those of ritodrine”.
`COc1cc(OC2CCN(C(C)=O)CC2)ccc1CC(=O)N1CCN(c2ccccc2C)CC1C(N)=O` (stereo not drawn) [Example 9, 1-(2-Methoxy-4-(1-acetyl-4-piperidyloxy)phenylacetyl)-4-(2-methylphenyl)piperazine-2-carboxamide] returned an IC50 in series [2] of 34 nM.
With `COc1cc(OC2CCN(c3c(O)c(=O)c3=O)CC2)ccc1CC(=O)N1CCN(c2ccccc2C)CC1C(N)=O` (stereo not drawn) [Example 14, 1-(2-Methoxy-4-(1-(3-hydroxy-3-cyclobutene-1,2-dion-4-y)-4-piperidyloxy)phenylacetyl)-4-(2-methylphenyl)piperazine-2-carboxamide], the IC50 in series [2] (read-out: Result For [^3 H]OT (IC50), rat uterus membranes, 1 nM [^3 H]OT) was found to be 24 nM.
Turning to `CC(C)(C)NCC(O)c1cc(O)cc(O)c1` (stereo not drawn) [terbutaline], the side effects result in series [1] (tocolytic use, in the mother) is on record as “side effects similar to those of ritodrine”.
For `CCO` [Ethanol], in series [3], the “effectiveness in preventing premature labor” value is listed as “as effective as ritodrine in preventing premature labor” and the “reduction in incidence of fetal respiratory distress” value is “does not produce a corresponding reduction in the incidence of fetal respiratory distress”.
With `COc1ccc(CC(=O)N2CCN(c3ccccc3C)CC2C(N)=O)c(OC)c1` (stereo not drawn) [Example 7, 1-(2,4-Dimethoxyphenylacetyl)-4-(2-methylphenyl)piperazine-2-carboxamide], the half-inhibitory concentration (IC50) in series [2] was 80 nM.
`CC[C@H](C)[C@@H]1NC(=O)[C@H](Cc2ccc(O)cc2)NC(=O)[C@@H](N)CSSC[C@@H](C(=O)N2CCC[C@H]2C(=O)N[C@@H](CC(C)C)C(=O)NCC(N)=O)NC(=O)[C@H](CC(N)=O)NC(=O)[C@H](CCC(N)=O)NC1=O` [OT, oxytocin]: the “ED50 dose of OT (uterine contraction)” value with uterus was roughly 1 µg/kg.
Regarding `O=C(Nc1ccc(CC(=O)N2CCC3(C=Cc4ccccc43)CC2c2ccccc2)cc1)c1ccc2[nH]cnc2c1` (stereo not drawn) [Example 2, 1'-(4-(Benzimidazole-5-carboxylamino)phenylacetyl)-2'-phenylspiro[1H]indene-1,4'-piperidine], the IC50 in series [2] came to 120 nM.
As to `COc1cc(OC2CCN(S(=O)(=O)CCNC3CC3)CC2)ccc1CC(=O)N1CCN(c2ccccc2C)CC1C(N)=O` (stereo not drawn) [Example 12, 1-(2-Methoxy-4-(1-(2-(N-cyclopropylamino)-ethylsulfonyl)-4-piperidyloxy)phenylacetyl)-4-(2-methylphenyl)piperazine-2-carboxamide], in series [2], the IC50 was 20 nM.
With `COc1ccc(CC(=O)N2CCC3(C=Cc4ccccc43)CC2)c(OC)c1` [Example 1, 1'-(2,4-Dimethoxyphenylacetyl)-spiro[1H]indene-1,4'-piperidine], the IC50 in series [2] was found to be 400 nM.
Regarding `CCN(CC)CCS(=O)(=O)N1CCC(Oc2ccc(CC(=O)N3CCN(c4ccccc4C)CC3C(N)=O)c(OC)c2)CC1` (stereo not drawn) [Example 11, 1-(2-Methoxy-4-(1-(2-(N,N-Diethylamino)ethylsulfonyl)-4-piperidyloxy)phenylacetyl)-4-(2-methylphenyl)piperazine-2-carboxamide], the half-maximal inhibitory concentration (IC50) in series [2] turned out to be 21 nM.
